Assay results from patent US6784175B2, “Use of substituted 1-amino-5-phenylpentane-3-ol and/or 1-amino-6-phenylhexane-3-ol compounds as medicaments” (Gruenenthal GmbH, priority 2000, dated 2004).

Tests used:
[1] = system: (+)-MK801 binding site of the ionotropic NMDA receptor; assay: (3H)-(+)-MK801 receptor bonding test on rat cerebral membrane homogenates; conditions: 1 nmol/l (3H)-(+)-MK801, rat brain membrane homogenate; for Percentage inhibition of (3H)-(+)-MK801 binding at 10 μM: 10 μmol/l compound, triple determinations; for Ki: calculated from IC50 by Cheng-Prusoff equation
Method: Research to determine the NMDA antagonistic effect of each compound in general formula I was carried out on cerebral membrane homogenates (homogenate of rat brain without cerebellum, pons and medulla oblongata taken from male Wistar rats (Charles River, Sulzfeld, Germany)).
For this purpose, after separating the cerebellum, pons and medulla oblongata, freshly prepared rat brains were macerated in 50 mmol/l of tris/HCl (pH 7.7) with a Polytron homogeniser (model PT3000, Kinematika AG, Littau, Switzerland) at 6000 revolutions per minute (rpm) for 1 minute with ice cooling and centrifuged for 15 minutes at 4° C. and 60,000 g. After decanting and discarding the supernatant, again placing in 50 mmol/l of tris/HCl (pH 7.7) and macerating the membrane pellet with a homogeniser at 2000 rpm for 1 minute, it was centrifuged again for 15 minutes at 4° C. and 60,000 g. The supernatant was again discarding and the membrane pellet homogenised (2000 rpm for 1 minute) in 50 mmol/l of tris/HCl (pH 7.7) and frozen in aliquots at −70° C.
For the receptor bonding test, each aliquot was defrosted and then centrifuged for 15 minutes at 4° C. and 60,000 g. After decanting and discarding the supernatant, the membrane pellet was taken up with bonding test buffer and homogenised (2000 rpm for 1 minute). The bonding test buffer was 5 mmol/l tris/HCl (pH 7.7) supplemented with 30 μmol/l of glycine and 100 μmol/l of glutamic acid.
1 nmol/l of (^3H)-(+)-MK801 ((5R, 10S)-(+)-5-methyl-10,11-dihydro-5H-dibenzo(a,d)cycloheptane-5,10-imine was used as a radioactively marked ligand (NET-972, NEN, Cologne Germany). The proportion of unspecific bonding was determined in the presence of 10 μmol/l of non-radioactively marked (+)-MK801 (RBI/Sigma, Deisenhofen, Germany). In further batches, each of the compounds of general formula I were added in series of concentrations and the displacement of the radioactive ligand out of its specific bond to the NMDA receptor determined. All the batches were subjected to triple determinations. The batches were each incubated for 40 minutes at 25° C. in a water bath and then harvested for determination of the radioactive ligand bound to the cerebral membrane homogenate by means of filtration through glass-fibre filters (GF/B) (Whatman GF/B, Hassel, Munich, Germany). The radioactivity retained by the glass-fibre filter discs was measured in a β counter (Packard TRI-CARB Liquid Scintillation Analyser 2000CA, Packard Instrument, Meriden, Conn. 06450, USA) after adding a scintillator (“Ready Protein” scintillator, Beckmann Coulter GmhH, Krefeld, Germany).
The percentage inhibition of the specific bonding of the ligand (^3H)-(+)-MK801 in the presence of 10 μmol/l of each compound of general formula I resulting from the triple batches is used as a measure of the affinity of the compound for the (+)-MK801 binding site of the ionotropic NMDA receptor. From batches with concentration series of these compounds of general formula I, the IC50 values (concentration of substituted compounds with 50% displacement of radioactive ligand out of its specific bond) were calculated in accordance with the law of mass action using non-linear regression. From these IC50 values, the Kj values were calculated in accordance with the Cheng-Prusoff equation (Y. Cheng, W. H. Prusoff, 1973, Biochem. Pharmacol., 22, pp 3099-3108).

SMILES	Percentage inhibition of (3H)-(+)-MK801 binding at 10 μM [1] [%]	Ki ([1]; hydrochloride) [µM]	melting point [°C]	Ki [1] [µM]
Cc1ccccc1C(C1CCCCC1(O)CCc1ccccc1Cl)N(C)C.Cl (stereo not drawn) [Example 15, 1-[2-(2-chlorophenyl)ethyl]-2-(dimethylamino-o-tolylmethyl)cyclohexanol, hydrochloride]	100	0.7	190 to 194	
CN(C)C(c1ccccc1F)C1CCCCC1(O)CCc1ccccc1Cl.Cl (stereo not drawn) [Example 19, 1-[2-(2-chlorophenyl)ethyl]-2-(dimethylamino-(2-fluorophenyl)methyl]cyclohexanol, hydrochloride]	102		213	0.8
Cc1ccccc1C(C1CCCCC1(O)CCc1ccccc1Cl)N1CCCC1.Cl (stereo not drawn) [Example 23, 1-[2-(2-chlorophenyl)ethyl]-2-(pyrrolidine-1-yl-o-tolylmethyl)cyclohexanol, hydrochloride]	101		155	0.4
